How the values were obtained:
[1] = tested on: native cockroach ryanodine receptors (in embryonic neuronal cells); experiment: Calcium release assay, calcium imaging of embryonic cockroach neuronal cells (Fluo-4); assay type: cell-based, Periplaneta americana; settings: for Calcium Release (P. americana): Table 6, result in words
From the text: Embryonic neuronal cultures of the American cockroach Periplaneta americana were established, with minor modifications, following the method of Beadle and Lees (1988) (in Cell Culture Approaches to Invertebrate Neuroscience, Academic Press, New York, pp 123-127). Briefly, 26-27-day old oothecae were collected, surface-sterilized and cut open along a line one-third of the distance below the dorsal midline. The heads were removed and placed in Schneider's Drosophila medium (Invitrogen Life Technologies™, Carlsbad, Calif.). Using fine forceps 40 brains were individually removed and placed in a small glass vial containing 700 μl of ‘5+4’ medium (‘5+4’ medium contained 5 parts Schneider's Drosophila medium plus 4 parts roach Basal Medium Eagle, with Earle's salts (BME, Sigma™, St. Louis, Mo.). Roach BME (with Earle's salts) contained 5 parts Hepes (1 M), 1 part penicillin/streptomycin and 44 parts BME (with Earle's salts). ‘5+4’ medium was made fresh and sterile filtered (0.2 μm filter) just prior to use). The brains were dissociated by sequential trituration as follows: 1) brains were passed through a standard Pasteur pipette 10 times; 2) the resulting tissue suspension was passed an additional 5 times through a Pasteur pipet with tip flamed to about half of its original diameter; 3) a final 5 passes were performed using a Pasteur pipet with tip flamed to slightly less than half of its original diameter. A repeat pipettor was used to dispense a 5 μl volume of the resulting suspension into the center of each well of a 96-well, glass-bottom plate previously coated with poly-L-lysine (0.2 mg/ml solution). Cells attached to the bottom of the wells during a 50 min incubation at 27-29° C. 150 ul of a 1:1 mixture of Leibovitz's L-15 medium and Yunker's modified Grace's medium was added, and plates were maintained in a humid incubator at 27-29° C. until use. After cells were allowed to attach wells were filled with a 1:1 mixture of Leibovitz's L-15 medium and Yunker's modified Grace's medium (Leibovitz's L-15 and Grace's medium were obtained from Invitrogen Life Technologies™, Carlsbad, Calif. and Yunker's modified Grace's medium was made with Grace's medium modified by addition of 5 mg L-methionine, 10 mg L-alanine, 182 mg MgCl2.6H20, 1 g Albumin Fraction V, 7 ml Fetal bovine serum, 10 ml Chick embryo extract, 2 ml Penicillin/Streptomycin, and 2 mg 20-hydroxyecdysone (prepared in ethanol prior to addition) to a final volume of 100 ml and sterile filtered (0.2 μm filter)). Cells were maintained in a high humidity incubator at 29° C. until testing.
The calcium imaging and acquisition protocols using roach neuronal cells is as follows:
Cells were rinsed in standard physiological saline having the following composition (mM): NaCl 190; CaCl2 9; KCl 3.1; probenicid 1; Tris buffer 10; pH 7.2. Cells were then bathed in standard physiological saline containing the calcium sensitive fluoroprobe Fluo-4 AM (2 μM) and Pluronic F127 (0.002%) for 45 min. Cells were then rinsed in standard physiological saline for at least 15 min prior to testing. Within the hour prior to testing, standard physiological saline was replaced with standard physiological saline containing the organic cation channel blocker pimozide (10 μM), to inhibit influx of external calcium through voltage-gated calcium channels. The 96-well plate was placed on a Prior™ motorized stage mounted onto a Nikon Diaphot microscope and imaged using a 20× Fluor objective (NA 0.75). Individual wells from the 96-well plate were sequentially excited with light at 495 nm, and the emitted fluorescence at 530 nm was detected using a Hamamatsu ORCA ER digital camera with 2 pixel binning (image size 672×512 pixels).
Acquisition control, image processing and image analysis were conducted using Universal Imaging Corporation's MetaMorph™ imaging software (Universal Imaging, West Chester, Pa.). A series of 3 “control” images were acquired for each well. […]

[2] = target: native cockroach ryanodine receptors (roach femoral muscle membranes) (Periplaneta americana, UniProt A0ABQ8T696); experiment: Radioligand displacement ([3H]-GN analog Cpd 1) on roach femoral muscle membranes; assay type: binding; settings: for IC50: displacement of [3H]-Cpd 1, roach muscle membranes, 60 min at 32° C., read-out: Displacement IC50 (nM) P. americana; for Radioligand Displacement (P. americana): Table 6, result in words
native cockroach ryanodine receptors (roach femoral muscle membranes), sequence (A0ABQ8T696 entry or part of it): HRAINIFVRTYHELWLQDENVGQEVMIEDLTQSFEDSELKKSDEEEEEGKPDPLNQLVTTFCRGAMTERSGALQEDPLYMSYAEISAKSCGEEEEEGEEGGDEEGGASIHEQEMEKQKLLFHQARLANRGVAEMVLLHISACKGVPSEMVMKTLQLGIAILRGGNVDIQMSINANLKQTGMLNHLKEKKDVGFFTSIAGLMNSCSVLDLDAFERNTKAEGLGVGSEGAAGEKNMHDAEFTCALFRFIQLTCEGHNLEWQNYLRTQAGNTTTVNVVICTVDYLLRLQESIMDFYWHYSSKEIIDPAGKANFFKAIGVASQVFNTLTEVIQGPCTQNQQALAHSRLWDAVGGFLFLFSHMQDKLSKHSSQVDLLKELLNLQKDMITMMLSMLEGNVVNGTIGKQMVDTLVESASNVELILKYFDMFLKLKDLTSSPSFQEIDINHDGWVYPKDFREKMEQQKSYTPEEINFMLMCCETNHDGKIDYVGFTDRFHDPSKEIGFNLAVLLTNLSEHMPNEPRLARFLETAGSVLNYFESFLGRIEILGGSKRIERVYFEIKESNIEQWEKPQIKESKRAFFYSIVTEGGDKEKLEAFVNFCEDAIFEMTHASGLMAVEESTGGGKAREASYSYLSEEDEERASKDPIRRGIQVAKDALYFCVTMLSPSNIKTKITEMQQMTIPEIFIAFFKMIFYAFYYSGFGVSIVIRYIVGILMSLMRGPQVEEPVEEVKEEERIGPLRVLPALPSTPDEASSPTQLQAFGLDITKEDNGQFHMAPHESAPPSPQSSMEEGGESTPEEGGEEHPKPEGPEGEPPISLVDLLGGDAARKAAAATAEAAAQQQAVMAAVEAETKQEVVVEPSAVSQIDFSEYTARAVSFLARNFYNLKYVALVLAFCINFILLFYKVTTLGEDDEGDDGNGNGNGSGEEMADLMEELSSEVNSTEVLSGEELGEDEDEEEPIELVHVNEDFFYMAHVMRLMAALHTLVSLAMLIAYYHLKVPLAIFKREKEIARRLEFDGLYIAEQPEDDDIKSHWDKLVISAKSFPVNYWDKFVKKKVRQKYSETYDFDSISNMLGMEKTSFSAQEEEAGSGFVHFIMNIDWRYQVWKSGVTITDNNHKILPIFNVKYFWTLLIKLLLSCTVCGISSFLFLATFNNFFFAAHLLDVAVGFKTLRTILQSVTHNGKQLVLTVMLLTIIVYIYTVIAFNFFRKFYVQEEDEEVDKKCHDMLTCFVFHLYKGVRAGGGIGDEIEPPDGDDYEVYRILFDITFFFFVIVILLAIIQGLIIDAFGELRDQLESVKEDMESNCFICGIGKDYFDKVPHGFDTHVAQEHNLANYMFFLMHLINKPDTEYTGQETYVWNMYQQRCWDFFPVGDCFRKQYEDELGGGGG
Method: Binding to Roach Femoral Muscle Membranes:
Assays were carried out in triplicate.

[3] = target: T1, recombinant Drosophila melanogaster ryanodine receptors (expressed in Sf9 cells) (Drosophila melanogaster, UniProt Q24498); assay type: cell-based; settings: for Calcium Release Threshold (nM) D. melanogaster: receptor expressed in Sf9 cells; for Calcium Release (D. melanogaster): Table 6, result in words, receptor transiently or stably expressed in Sf9 cells
T1 construct: expressed in transfected cells
Method: The Spodoptera frugiperda cell line Sf9 used for transfection studies, was maintained in Sf-900 II SFM medium (Invitrogen Life Technologies™, Carlsbad, Calif.) in T-75 flasks incubated at 27° C. It is understood that those skilled in the art might choose alternative cell types such as the Spodoptera frugiperda cell line Sf21 or the Drosophila cell line S2. For the purpose of general handling and propagation, cells were suspended through scraping or agitation and a volume of cell suspension was added to each well of a poly-L-lysine coated 96-well, glass-bottom plate so as to provide 70-80% confluence. Cells were maintained in an incubator at 27° C. until testing.
SF900-II media was used to bring the final volume in the dish to 2 ml and the cells were incubated at 27 degrees C. for 21 h. Following the incubation the media was aspirated from the dish and replaced with 1 ml of SF900-II media pre-warmed to 27 degrees C.
The transient transfection was carried out following an InsectSelect BSD System manual (Invitrogen Life Technologies™, Carlsbad, Calif.). […] The transfection was accomplished by adding the transfection solution drop-wise to the dish and incubating 4 h at room temperature with gentle rocking. […]
(§1) Several drops of a suspension of recombinant Spodoptera frugiperda cell line, Sf9, transiently expressing insect ryanodine receptors were placed on a poly-L-lysine-coated coverslip and allowed to attach. Cells were then rinsed in physiological saline having the following composition (mM): NaCl 130; KCl 5.4; MgCl2 1.2; CaCl2 1.0; NaHCO3 4.2; NaH2P04 7.3; Glucose 10; Sucrose 63; MES 20; pH 6.3. Cells were then bathed in physiological saline containing the calcium sensitive fluoroprobe, Fura-2 AM (2 μM), and Pluronic F127 (0.002%) for 30 min. Cells were rinsed in standard physiological saline for at least 15 min prior to testing. Testing was conducted in standard physiological saline, as the cell lines are devoid of functional voltage-gated calcium channels.
Cell-attached coverslips were placed in a sealed chamber with physiological saline continuously perfused across the cells using a peristaltic pump. Test compounds solubilized in physiological saline were applied by switching the perfusate source.
(§2) For studies involving the stable recombinant Spodoptera frugiperda cell line, Sf9, (other cell lines could also be used such as Sf21, S2, etc) expressing an insect ryanodine receptor from Drosophila melanogaster, or Heliothis virescens (alternatively receptors from other species such as Myzus persicae, Peregrinus maidis, Aphis gossypii, etc) were grown in T75 (or other appropriate sized) flasks in supplemented Grace's insect medium. Cells were maintained in an incubator at 22° C. until testing. Cells were suspension-loaded with the calcium sensitive fluoroprobe, Fura-2 AM (1-2 μM) and Pluronic F127 (0.002%) in culture medium for 30 minutes under agitation. Cells were then centrifuged and the pellet resuspended in physiological saline having the following composition (mM): NaCl 130; KCl 5.4; MgCl2 1.2; CaCl2 1.0; NaHCO3 4.2; NaH2P04 7.3; Glucose 10; Sucrose 63; MES 20; pH 6.3 at approximately 150,000-200,000 cells per well (96-well plate). After a 30 minute equilibration period the cell plate was tested using a Molecular Devices' FlexStation™ system with dual wavelength excitation (340 and 380 nm) and fluorescence emission measured at 510 nm. Test and control samples were added using integrated fluidics and the intracellular calcium monitored over a 2 minute period.

[4] = tested on: control cells without DNA / wild-type Sf9 cells; experiment: Calcium response in control Sf9 cells (without DNA, lipid only, non-transfected, wild type); assay type: cell-based, Spodoptera frugiperda; settings: Compound 16 10 and 100 nM
From the text: as §1
Imaging studies were conducted using a Nikon Diaphot microscope with a 40× oil immersion objective (NA 1.3) Image acquisition and processing was performed using the MetaFluor™ imaging system from Universal Imaging Corporation (West Chester, Pa.) Calcium calibration was carried out using the Grynkiewicz equation with a dissociation constant (Kd) of 145 nM for Fura-2 (Grynkiewicz et al., 1985). Cell-attached coverslips were placed in a sealed chamber with physiological saline continuously perfused across the cells using a peristaltic pump. Test compounds solubilized in physiological saline were applied by switching the perfusate source.
as §2

Row | Compound | IC50 [2] [nM] | Calcium Release Threshold (nM) P. americana [1] [nM] | further results
1 | Oc1c(Br)cc2[nH]c3cnccc3c2c1Br [Bromoeudistomin D, reference compound] | – | – | Calcium Release (P. americana) [1]: Agonist
2 | [3H]c1cc(C)c(NC(=O)c2cc(C(F)(F)F)nn2-c2ccccc2F)c(C(=O)NC(C)C)c1 [Cpd 1, 1-(2-Fluorophenyl)-N-[2-methyl-4-tritio-6-[[(1-methylethyl)amino]carbonyl]phenyl]-3-(trifluoromethyl)-1H-pyrazole-5-carboxamide] | < 300 | – | Calcium Release Threshold (nM) D. melanogaster [3]: <300 nM
3 | Cc1cccc(C(=O)NC(C)C)c1NC(=O)c1cc(C(F)(F)F)nn1-c1ccccc1Cl [Cpd 2] | < 300 | <300 | Calcium Release Threshold (nM) D. melanogaster [3]: <300 nM
4 | Cc1cc(Br)cc(C(=O)NCC(C)C)c1NC(=O)c1cc(C(F)(F)F)nn1-c1ccccc1Cl [Cpd 3] | < 300 | – | –
5 | CNC(=O)c1cccc(C)c1NC(=O)c1cc(C(F)(F)F)nn1-c1ncccc1Cl [Cpd 6] | < 300 | <300 | –
6 | Cc1cccc(C(=O)NC(C)C)c1NC(=O)c1cc(Br)nn1-c1ncccc1Cl [Cpd 7] | < 300 | <300 | –
7 | Cc1cccc(C(=O)NC(C)C)c1NC(=O)c1cc(Cl)nn1-c1ncccc1Cl [Cpd 8] | < 300 | <300 | –
8 | Cc1cc(Br)cc(C(=O)NC(C)C)c1NC(=O)c1cc(C(F)(F)F)nn1-c1ncccc1Cl [Cpd 9] | < 300 | <300 | –
9 | Cc1cc(Cl)cc(C(=O)NC(C)C)c1NC(=O)c1cc(C(F)(F)F)nn1-c1ncccc1Cl [Cpd 10] | < 300 | <300 | –
10 | CNC(=O)c1cc(Cl)cc(C)c1NC(=O)c1cc(C(F)(F)F)nn1-c1ncccc1Cl [Cpd 11] | < 300 | <300 | Calcium Release Threshold (nM) D. melanogaster [3]: <300 nM
11 | Cc1cc(Br)cc(C(=O)NC(C)C)c1NC(=O)c1cc(Br)nn1-c1ncccc1Cl [Cpd 12] | < 300 | <300 | –
12 | Cc1cc(Cl)cc(C(=O)NC(C)C)c1NC(=O)c1cc(Br)nn1-c1ncccc1Cl [Cpd 13] | < 300 | – | –
13 | CNC(=O)c1cc(Br)cc(C)c1NC(=O)c1cc(C(F)(F)F)nn1-c1ncccc1Cl [Cpd 15] | < 300 | <300 | –
14 | Cc1cc(Cl)cc(C(=O)NC(C)C)c1NC(=O)c1cc(Cl)nn1-c1ncccc1Cl [Cpd 16] | < 300 | <300 | calcium response in control cells without DNA [4]: No significant calcium responses; calcium response ([3]; Compound 16 10 and 100 nM, Sf9 transiently expressing D. melanogaster ryanodine receptor, 96 hr post-transfection, FIG. 3): calcium responses elicited; Calcium Release Threshold (nM) D. melanogaster [3]: <300 nM
15 | CNC(=O)c1cc(Cl)cc(C)c1NC(=O)c1cc(Cl)nn1-c1ncccc1Cl [Cpd 17] | < 300 | <300 | –
16 | CCNC(=O)c1cc(Br)cc(Br)c1NC(=O)c1cc(C(F)(F)F)nn1-c1ncccc1Cl [Cpd 18] | < 300 | – | –
17 | COc1cccc2c1C(=O)c1c(O)c3c(c(O)c1C2=O)C[C@@](O)(C(=O)CO)C[C@@H]3O[C@H]1C[C@H](N)[C@H](O)[C@H](C)O1.Cl [Doxorubicin, reference compound] | – | – | Calcium Release (P. americana) [1]: Inactive
18 | N.N.N.N.N.N.N.N.N.N.N.N.N.N.[Cl-].[Cl-].[Cl-].[Cl-].[Cl-].[Cl-].[O-2].[O-2].[Ru+3].[Ru+3].[Ru+4] [Ruthenium Red, reference compound] | – | – | Calcium Release (P. americana) [1]: Inactive; Radioligand Displacement (P. americana) [2]: Displacer; Calcium Release (D. melanogaster) [3]: Antagonist
19 | Ryanodine [reference compound] | – | – | Calcium Release (P. americana) [1]: Antagonist; Radioligand Displacement (P. americana) [2]: Inactive; Calcium Release (D. melanogaster) [3]: Antagonist

Reference: patent publication US7655395B2, “Isolation and use of ryanodine receptors” (E.I. du Pont de Nemours and Company, priority 2002, dated 2010)
